Data from ChEMBL document CHEMBL5370533 (Eur J Med Chem, 2023).
Active and inactive are the calls of the source. The calls are words filed in the database; no cut-off is given here.

Legend:
[1] = target: Receptor-type tyrosine-protein kinase FLT3 (Homo sapiens, UniProt P36888, D835V/ITD); test: Binding affinity to FLT3 ITD/D835V mutant (unknown origin)
[2] = Tmax in Beagle dog at […], po; type: ADME, organism-based, Canis lupus familiaris; conditions: in vivo, dose 1.5 mg/kg
[3] = test system: SW-620; test: Antiproliferative activity against human SW-620 cells assessed as inhibition of cell growth; type: functional
[4] = target: Receptor-type tyrosine-protein kinase FLT3 (Homo sapiens, UniProt P36888, F691L/ITD); test: Binding affinity to FLT3 ITD/F691L mutant (unknown origin)
[5] = Cmax in rat at 10 mg/kg, po; type: ADME, organism-based; parameters: dose 10 mg/kg, route po; conditions: in vivo
[6] = Half life in human liver microsomes by LC-MS/MS analysis; type: ADME, Microsome
[7] = Cmax in Beagle dog at […], po; type: ADME, organism-based, Canis lupus familiaris; parameters: dose 1.5 mg/kg, route po; conditions: in vivo
[8] = test system: BaF3; test: cells; type: functional, cell-based; conditions: Mus musculus, BaF3, 72 h
Description: Antiproliferative activity against mouse BaF3 cells harboring FLT3 ITD/D835V mutant assessed as inhibition of cell growth incubated for 72 hrs

[9] = test system: MV4-11; test: Antiproliferative activity against human MV4-11 cells harboring FLT3 ITD mutant assessed as inhibition of cell growth incubated for 72 hrs by CellTiter-Glo luminescent assay; type: functional, cell-based; conditions: MV4-11, 72 h
[10] = Cytotoxicity against human PBMC cells assessed as inhibition of cell growth; type: toxicity, cell-based
[11] = target: Receptor-type tyrosine-protein kinase FLT3 (Homo sapiens, UniProt P36888, D835V); test: Binding affinity to FLT3 D835V mutant (unknown origin)
[12] = target: Receptor-type tyrosine-protein kinase FLT3 (Homo sapiens, UniProt P36888, D835H); test: Binding affinity to FLT3 D835H mutant (unknown origin)
[13] = target: Receptor-type tyrosine-protein kinase FLT3 (Homo sapiens, UniProt P36888, K663Q); test: Binding affinity to FLT3 K663Q mutant (unknown origin)
[14] = target: Receptor-type tyrosine-protein kinase FLT3 (Homo sapiens) (UniProt P36888); test: Inhibition of FLT3 in human MV4-11 cells assessed as decrease in phosphorylated ERK level incubated for 24 hrs by immunoblot analysis; type: cell-based; conditions: dose 20-600 nM
[15] = test system: NCI-H460; test: Antiproliferative activity against human NCI-H460 cells assessed as inhibition of cell growth; type: functional
[16] = Tmax in rat at 10 mg/kg, po; type: ADME, organism-based; conditions: in vivo
[17] = Half life in Beagle dog at […], po; type: ADME, organism-based, Canis lupus familiaris; conditions: in vivo, dose 1.5 mg/kg
[18] = Clearance in human liver microsomes measured per mg protein by LC-MS/MS analysis; type: ADME, Microsome; conditions: read-out: CLH
[19] = target: Mast/stem cell growth factor receptor Kit (Homo sapiens) (UniProt P10721); test: Inhibition of c-Kit (unknown origin)
Chain of Mast/stem cell growth factor receptor Kit (Homo sapiens) (P10721 whole entry): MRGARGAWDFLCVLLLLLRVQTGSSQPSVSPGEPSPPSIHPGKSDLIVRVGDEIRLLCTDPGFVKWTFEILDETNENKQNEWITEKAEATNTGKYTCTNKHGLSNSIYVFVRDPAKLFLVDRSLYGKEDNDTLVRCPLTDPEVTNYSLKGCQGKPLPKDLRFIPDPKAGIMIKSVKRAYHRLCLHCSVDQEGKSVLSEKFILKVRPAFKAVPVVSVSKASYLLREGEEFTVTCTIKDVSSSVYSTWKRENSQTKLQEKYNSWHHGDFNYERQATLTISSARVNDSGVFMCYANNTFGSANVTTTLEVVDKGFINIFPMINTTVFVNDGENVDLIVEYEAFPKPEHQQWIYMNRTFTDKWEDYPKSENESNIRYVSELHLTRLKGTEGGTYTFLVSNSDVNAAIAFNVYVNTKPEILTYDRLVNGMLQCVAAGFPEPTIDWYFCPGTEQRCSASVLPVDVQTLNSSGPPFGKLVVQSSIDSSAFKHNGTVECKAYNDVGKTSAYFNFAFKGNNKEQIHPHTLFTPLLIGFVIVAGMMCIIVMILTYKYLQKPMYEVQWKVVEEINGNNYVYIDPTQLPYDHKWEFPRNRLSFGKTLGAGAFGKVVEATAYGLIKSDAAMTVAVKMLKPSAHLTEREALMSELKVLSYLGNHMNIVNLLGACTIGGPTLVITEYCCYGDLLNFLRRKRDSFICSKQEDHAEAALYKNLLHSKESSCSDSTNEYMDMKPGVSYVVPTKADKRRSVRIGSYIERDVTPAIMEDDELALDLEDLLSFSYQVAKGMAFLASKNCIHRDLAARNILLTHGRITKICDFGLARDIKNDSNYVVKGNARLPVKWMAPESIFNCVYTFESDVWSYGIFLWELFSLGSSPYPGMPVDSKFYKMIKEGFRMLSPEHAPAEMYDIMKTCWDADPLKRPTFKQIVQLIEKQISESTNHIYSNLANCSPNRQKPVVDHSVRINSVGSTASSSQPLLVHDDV

[20] = test system: K562; test: Antiproliferative activity against human K562 cells deficit of oncogenic FLT3 assessed as inhibition of cell growth; type: functional, cell-based
[21] = target: CDK6/cyclin D1 (Homo sapiens) (UniProt P24385+Q00534); test: Inhibition of CDK6/Cyclin D1 (unknown origin); type: protein-complex assay; conditions: concentration not given here
[22] = AUC (0 to t) in Beagle dog at […], po; type: ADME, organism-based, Canis lupus familiaris; parameters: dose 1.5 mg/kg, route po; conditions: in vivo
[23] = test system: SR; test: Antiproliferative activity against human SR cells not addicted to FLT3 ITD mutant assessed as inhibition of cell growth; type: functional
[24] = test system: MV4-11; test: Antitumor activity against human MV4-11 cells xenografted in nu/nu mouse assessed as inhibition of tumor growth at 25 mg/kg, po qd for 2 weeks by vernier caliper analysis; type: functional; conditions: MV4-11, 336 h
[25] = Oral bioavailability in Beagle dog at […]; type: ADME, organism-based, Canis lupus familiaris; conditions: in vivo, dose 1.5 mg/kg
[26] = target: T1, Receptor-type tyrosine-protein kinase FLT3 (Homo sapiens, UniProt P36888); test: Binding affinity to FLT3 (unknown origin)
T1 sequence (P36888 whole entry): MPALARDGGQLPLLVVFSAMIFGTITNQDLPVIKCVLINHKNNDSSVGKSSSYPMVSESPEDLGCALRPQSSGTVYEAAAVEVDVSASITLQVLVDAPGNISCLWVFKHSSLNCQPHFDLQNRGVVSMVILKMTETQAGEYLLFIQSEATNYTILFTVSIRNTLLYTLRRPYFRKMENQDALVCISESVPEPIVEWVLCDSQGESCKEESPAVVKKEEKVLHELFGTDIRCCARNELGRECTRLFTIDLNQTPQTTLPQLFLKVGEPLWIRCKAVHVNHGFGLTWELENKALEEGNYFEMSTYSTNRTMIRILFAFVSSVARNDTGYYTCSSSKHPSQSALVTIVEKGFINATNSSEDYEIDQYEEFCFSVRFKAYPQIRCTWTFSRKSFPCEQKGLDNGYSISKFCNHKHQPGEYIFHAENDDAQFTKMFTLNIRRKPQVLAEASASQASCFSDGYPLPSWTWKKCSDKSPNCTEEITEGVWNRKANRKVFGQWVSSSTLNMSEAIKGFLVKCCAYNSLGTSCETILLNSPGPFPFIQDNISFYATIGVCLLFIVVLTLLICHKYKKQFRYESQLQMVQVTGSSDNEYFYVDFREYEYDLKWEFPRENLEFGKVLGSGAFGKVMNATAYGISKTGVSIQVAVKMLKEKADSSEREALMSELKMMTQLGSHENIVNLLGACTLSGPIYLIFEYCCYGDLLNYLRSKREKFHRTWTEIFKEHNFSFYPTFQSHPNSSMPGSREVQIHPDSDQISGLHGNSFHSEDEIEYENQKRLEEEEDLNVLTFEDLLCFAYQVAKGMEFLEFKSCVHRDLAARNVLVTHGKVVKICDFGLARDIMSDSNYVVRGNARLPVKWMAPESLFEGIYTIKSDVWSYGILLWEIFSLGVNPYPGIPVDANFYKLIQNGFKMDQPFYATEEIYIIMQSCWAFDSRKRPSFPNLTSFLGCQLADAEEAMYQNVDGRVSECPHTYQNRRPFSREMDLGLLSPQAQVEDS

[27] = target: Receptor-type tyrosine-protein kinase FLT3 (Homo sapiens, UniProt P36888, D835Y); test: Binding affinity to FLT3 D835Y mutant (unknown origin)
[28] = test system: BaF3; test: Antiproliferative activity against mouse BaF3 cells harboring FLT3 D835V mutant assessed as inhibition of cell growth incubated for 72 hrs; type: functional, cell-based; conditions: BaF3, 72 h
[29] = Oral bioavailability in rat at 10 mg/kg; type: ADME, organism-based; conditions: in vivo
[30] = test system: U-937; test: Antiproliferative activity against human U-937 cells expressing low level wild type FLT3 assessed as inhibition of cell growth; type: functional, cell-based
[31] = Cytotoxicity against mouse BaF3 cells assessed as inhibition of cell growth incubated for 72 hrs; type: toxicity, cell-based
[32] = target: T1, Receptor-type tyrosine-protein kinase FLT3; test: Binding affinity to autoinhibited FLT3 (unknown origin)
[33] = test system: BaF3; test: cells; type: functional, cell-based; conditions: Mus musculus, BaF3, 72 h; remark: listed apart in the source
Description: Antiproliferative activity against mouse BaF3 cells harboring FLT3 ITD/N676D mutant assessed as inhibition of cell growth incubated for 72 hrs

[34] = target: CDK4/Cyclin D3 (Homo sapiens) (UniProt P11802+P30281); test: Inhibition of CDK4/Cyclin D3 (unknown origin); type: protein-complex assay; conditions: concentration not given here
[35] = test system: MOLM-13; test: Antiproliferative activity against human MOLM-13 cells harboring FLT3 ITD mutant assessed as inhibition of cell growth; type: functional, cell-based

Kd [1]: 0.58 nM | Tmax [2]: 1.67 h | GI50 [3]: < 1000 nM | Kd [4]: 1.61 nM | Cmax [5]: 144 ng/mL | half-life [6]: 3.1 h | Cmax [7]: 52.1 ng/mL | IC50 [8]: 9 nM | IC50 [9]: 15 nM | Kd [11]: 1.54 nM | Kd [12]: 48.5 nM | Kd [13]: 121 nM | inhibition [14]: Dose-Dependent Effect | GI50 [15]: < 1000 nM | Tmax [16]: 4 h | half-life [17]: 11.1 h | microsomal CLint [18]: 7.4 µL/min/mg | inhibition [19]: Active | IC50 [20]: 572 nM | inhibition [21]: 68.8% | AUC(0-t) [22]: 762 ng·h/mL | bioavailability [25]: 72.7% | Kd [26]: 22.1 nM | Kd [27]: 7.16 nM | IC50 [28]: 43 nM | bioavailability [29]: 33.3% | IC50 [30]: 692 nM | Kd [32]: 121 nM | IC50 [33]: 54 nM | inhibition [34]: 79.2% | IC50 [35]: 16.3 nM
Structure (SMILES): O=C(Nc1ccc(N2CCNCC2)cc1)c1n[nH]cc1Nc1cc(Oc2ccccc2)ncn1
IC50 [10]: 831 nM | GI50 [23]: 300 nM | inhibition in vivo at 25 mg/kg [24]: 94.2% | IC50 at 72 h [31]: 2920 nM
